Source: publication PMC3708846, “Cathelicidin-like Helminth Defence Molecules (HDMs): Absence of Cytotoxic, Anti-microbial and Anti-protozoan Activities Imply a Specific Adaptation to Immune Modulation” (PLoS Neglected Tropical Diseases, 2013)
≈ marks a conversion by molar mass, not a printed value. Where “and” joins values, the source holds several entries; their conditions need not be identical. Identical values can stand only once. Like-named read-outs stand apart in the source and are kept apart here. Ends that are not written are not given here.

Columns and labels:
human red blood cells = assay: Haemolytic activity; assay type: cell-based; conditions: 0.5% human RBC, 1 h 37°C, OD 414 nm, 100% = 1% Triton X-100, triplicate
Protocol: The peptide's haemolytic activities were determined using human red blood cells (RBCs; Research Blood Components, LLC) in 96-well polypropylene microtiter plates. One hundred µl of 0.5% RBC suspension was added to an equal volume of a peptide (8–256 µg/ml). After 1 h at 37°C, plates were centrifuged at 1420×g for 5 min and the optical density of the supernatant was measured at 414 nm with a Synergy H1 hybrid reader (Biotek). Values for 0% and 100% lysis were obtained by adding PBS or Triton X-100 (1%; final concentration) to RBCs, respectively. All assays were performed in triplicate and the values of percent lysis were within a 1% standard deviation range.

Pseudomonas aeruginosa = assay type: cell-based
Protocol: (§1) The minimal inhibitory concentration (MIC) of each peptide against various bacteria was determined using a standardized dilution method according to NCSLA guidelines [35]. Overnight colonies of E. coli, Pseudomonas aeruginosa, Salmonella typhimurium, Staphylococcus epidermis and Staphylococcus aureus, were suspended to a turbidity of 0.5 OD units and further diluted in Mueller-Hinton broth (MHB). […] Ten microliters of each concentration was added to each corresponding well of a 96-well polypropylene microtiter plate and 1×10^5 bacteria in the volume of 90 µL. The plate was incubated at 37°C for 16 h and then read at 600 nm with a Synergy H1 hybrid reader (Biotek).

Escherichia coli = assay type: cell-based
Protocol: as §1

Salmonella typhimurium = assay type: cell-based
Protocol: as §1

Staphylococcus epidermis = assay type: cell-based
Protocol: as §1

Staphylococcus aureus = assay type: cell-based
Protocol: as §1

[1] = Pseudomonas aeruginosa, Mueller Hinton broth, acetic acid/BSA, 1×10^5 bacteria, 37°C 16 h, read at 600 nm
[2] = Escherichia coli, Mueller Hinton broth, acetic acid/BSA, 1×10^5 bacteria, 37°C 16 h, read at 600 nm
[3] = Salmonella typhimurium, Mueller Hinton broth, acetic acid/BSA, 1×10^5 bacteria, 37°C 16 h, read at 600 nm
[4] = Staphylococcus epidermis, Mueller Hinton broth, acetic acid/BSA, 1×10^5 bacteria, 37°C 16 h, read at 600 nm
[5] = Staphylococcus aureus, Mueller Hinton broth, acetic acid/BSA, 1×10^5 bacteria, 37°C 16 h, read at 600 nm

AMAYLAKDNLGEKITEVITILLNRLTDRLEKYAG [FhHDM-1p2]
Hemolytic activity (human red blood cells; peptide 8 µg/ml): 0%
Hemolytic activity (human red blood cells; peptide 16 µg/ml): 0%
Hemolytic activity (human red blood cells; peptide 32 µg/ml): 1.8%
Hemolytic activity (human red blood cells; peptide 64 µg/ml): 2.6%
Hemolytic activity (human red blood cells; peptide 128 µg/ml): 5.4%
Hemolytic activity (human red blood cells; peptide 256 µg/ml): 11.4%
MIC (Pseudomonas aeruginosa; [1]): >128 µg/mL
MIC (Escherichia coli; [2]): >128 µg/mL
MIC (Salmonella typhimurium; [3]): >128 µg/mL
MIC (Staphylococcus epidermis; [4]): >128 µg/mL
MIC (Staphylococcus aureus; [5]): >128 µg/mL

CC[C@H](C)[C@H](NC(=O)[C@H](CCCCN)NC(=O)[C@H](CCC(=O)O)NC(=O)[C@H](CCCCN)NC(=O)[C@H](CO)NC(=O)[C@H](CCCCN)NC(=O)[C@H](CCCNC(=N)N)NC(=O)[C@H](Cc1ccccc1)NC(=O)[C@H](Cc1ccccc1)NC(=O)[C@H](CC(=O)O)NC(=O)CNC(=O)[C@H](CC(C)C)NC(=O)[C@@H](N)CC(C)C)C(=O)NCC(=O)N[C@@H](CCCCN)C(=O)N[C@@H](CCC(=O)O)C(=O)N[C@@H](Cc1ccccc1)C(=O)N[C@@H](CCCCN)C(=O)N[C@@H](CCCNC(=N)N)C(=O)N[C@H](C(=O)N[C@H](C(=O)N[C@@H](CCC(N)=O)C(=O)N[C@@H](CCCNC(=N)N)C(=O)N[C@H](C(=O)N[C@@H](CCCCN)C(=O)N[C@@H](CC(=O)O)C(=O)N[C@@H](Cc1ccccc1)C(=O)N[C@@H](CC(C)C)C(=O)N[C@@H](CCCNC(=N)N)C(=O)N[C@@H](CC(N)=O)C(=O)N[C@@H](CC(C)C)C(=O)N[C@H](C(=O)N1CCC[C@H]1C(=O)N[C@@H](CCCNC(=N)N)C(=O)N[C@H](C(=O)N[C@@H](CCC(=O)O)C(=O)N[C@@H](CO)C(=O)O)[C@@H](C)O)C(C)C)[C@@H](C)CC)C(C)C)[C@@H](C)CC [LL-37, reference compound]
Hemolytic activity (human red blood cells; peptide 16 µg/ml): 1.7%
Hemolytic activity (human red blood cells; peptide 32 µg/ml): 4.1%
Hemolytic activity (human red blood cells; peptide 64 µg/ml): 10.4%
Hemolytic activity (human red blood cells; peptide 128 µg/ml): 20%
Hemolytic activity (human red blood cells; peptide 256 µg/ml): 20%
MIC (Pseudomonas aeruginosa; [1]): 8 µg/mL (≈ 1.78 µM)
MIC (Escherichia coli; [2]): 4 µg/mL (≈ 0.89 µM)
MIC (Salmonella typhimurium; [3]): 2 µg/mL (≈ 0.445 µM)
MIC (Staphylococcus epidermis; [4]): >128 µg/mL
MIC (Staphylococcus aureus; [5]): >128 µg/mL

ISRLAGLLRKGGEKIGEKLKKIGQKIKNFFQKLVPQPE [CRAMP]
MIC (Pseudomonas aeruginosa; 16 h): 4 µg/mL
MIC (Escherichia coli; 16 h): 2 µg/mL
MIC (Salmonella typhimurium; murium, 16 h): 4 µg/mL
MIC (Staphylococcus epidermis; 16 h): >128 µg/mL
MIC (Staphylococcus aureus; 16 h): >128 µg/mL

GGLRSLGRKILRAWKKYGPIIVPIIRIG [BMAP-28]
MIC (Pseudomonas aeruginosa; 16 h): 4 µg/mL
MIC (Escherichia coli; 16 h): 1 µg/mL
MIC (Salmonella typhimurium; murium, 16 h): 4 µg/mL
Hemolytic activity: 50% and 70%
MIC (Staphylococcus epidermis; 16 h): 4 µg/mL
MIC (Staphylococcus aureus; 16 h): 8 µg/mL

MDKYIRKEDLGMKMLDVAKILGRRIEKRMEYIAKK [Sm16-p73]
Hemolytic activity (human red blood cells; peptide 8 µg/ml): 0%
Hemolytic activity (human red blood cells; peptide 16 µg/ml): 0%
Hemolytic activity (human red blood cells; peptide 32 µg/ml): 0%
Hemolytic activity (human red blood cells; peptide 64 µg/ml): 0%
Hemolytic activity (human red blood cells; peptide 128 µg/ml): 0%
Hemolytic activity (human red blood cells; peptide 256 µg/ml): 0%
MIC (Pseudomonas aeruginosa; [1]): >128 µg/mL
MIC (Escherichia coli; [2]): >128 µg/mL
MIC (Salmonella typhimurium; [3]): >128 µg/mL
MIC (Staphylococcus epidermis; [4]): >128 µg/mL
MIC (Staphylococcus aureus; [5]): >128 µg/mL
